Experimental data published in PMC11062899, “De novo development of small cyclic peptides that are orally bioavailable” (Nature Chemical Biology, 2023).
Several values for one entry are separate records, joined by “and”; a condition that tells them apart may be missing. Identical values can stand only once.

Experiments:
[1] = target: T1, porcine pepsin (Sus scrofa, UniProt P00791); experiment: Peptide stability in simulated gastric fluid (SGF); assay type: in vitro ADME; settings: for SGF stability, Residual peptide Average / SGF stability, Residual peptide: after 8 h vs 0 h (TIC); for SGF stability, Residual peptide Average: average of R1-R3; for SGF stability, Residual peptide: single replicates R1-R3; for remaining at 8 h: simulated gi fluid, 37 °C, pH 1.2, read-out: Proteolytic stability: SGF (8 h) % remaining
T1 construct: 0.32 g of porcine pepsin (Sigma-Aldrich, P7125) was dissolved under gentle agitation; purchased Sigma-Aldrich P7125
T1 sequence (P00791 60-385): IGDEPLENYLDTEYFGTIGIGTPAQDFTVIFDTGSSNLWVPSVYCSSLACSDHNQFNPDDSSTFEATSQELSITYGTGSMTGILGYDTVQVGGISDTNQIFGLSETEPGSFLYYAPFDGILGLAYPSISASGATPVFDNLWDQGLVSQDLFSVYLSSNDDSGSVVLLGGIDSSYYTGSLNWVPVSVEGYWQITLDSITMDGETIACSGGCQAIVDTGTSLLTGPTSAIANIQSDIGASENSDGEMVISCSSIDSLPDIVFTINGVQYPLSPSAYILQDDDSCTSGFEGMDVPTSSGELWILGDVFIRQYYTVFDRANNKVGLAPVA
Outline: (§1)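 Peptide from a 1 mM DMSO stock was added to fluid pre-warmed at 37 °C. SGF was pH 1.2 NaCl with porcine pepsin (0.32 g per 100 ml), and SIF was pH 6.8 potassium phosphate with porcine pancreatin (1 g per 100 ml). Supernatant peptide was quantified by LC–MS, with residual expressed as T1/T0.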

[2] = Passive artificial membrane permeability (PAMPA); settings: for PAMPA permeability: % permeability: 50 μM, 12–18 h, acceptor concentration relative to equilibrium; for Papp at 50 μM / Permeability% Average / Permeability% R1 / Permeability% R3: PAMPA; for Papp at 50 μM: pH 7.4; for Permeability% Average: average of R1-R3; for Permeability% R1: replicate R1; for Permeability% R1 / Permeability% R3: TIC of top well sample relative to sample at theoretical equilibrium; for Permeability% R3: replicate R3
[3] = target: T2, rat α-thrombin (Rattus norvegicus, UniProt P18292); experiment: Protease inhibition, Ki for rat α-thrombin (fluorogenic substrate Z-Gly-Gly-Arg-AMC); assay type: biochemical; settings: replicates R1-R3
T2 construct: rat α-thrombin (Molecular Innovations) were used at final concentrations of 2 nM and 3 nM; purchased Molecular Innovations
Outline: (§2)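 Ki values come from Cheng–Prusoff correction of IC50, itself fitted by four-parameter logistic regression of activity versus a no-peptide control. Assays used 2 nM human or 3 nM rat thrombin, 50 μM Z-Gly-Gly-Arg-AMC, 30 min kinetic fluorescence at 25 °C.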

[4] = Peptide stability in simulated intestinal fluid (SIF); assay type: in vitro ADME, porcine; settings: simulated gi fluid; 8 h, 37 °C, pH 6.8; read-out: Proteolytic stability: SIF (8 h) % remaining
Outline: as §1

[5] = system: porcine pancreatin; experiment: as above; assay type: in vitro ADME; settings: after 8 h vs 0 h (TIC); for SIF stability, Residual peptide Average: average of R1-R3
Outline: as §1

[6] = target: human α-thrombin (Homo sapiens, UniProt P00734); experiment: Protease inhibition, Ki for human α-thrombin (fluorogenic substrate Z-Gly-Gly-Arg-AMC); assay type: biochemical; settings: replicates R1-R3
Outline: as §2

[7] = Metabolic stability in rat liver microsomes (RLMs); settings: rat, microsomes
[8] = peptide 1.33E+02 uM, slope of proteolytic substrate cleavage over time
[9] = CL (ul/min/mg protein) R1, RLM CL, replicate R1
[10] = CL (ul/min/mg protein) R2, RLM CL, replicate R2
[11] = CL (ul/min/mg protein) R3, RLM CL, replicate R3
[12] = Half Life (min) R1, RLM metabolic stability, replicate R1, 0-60 min
[13] = Half Life (min) R2, RLM metabolic stability, replicate R2, 0-60 min
[14] = Half Life (min) R3, RLM metabolic stability, replicate R3, 0-60 min
[15] = Metabolic stability: RLM CL (ul/min/mg), RLMs, mean and SD, three measurements

## O=C1CCSCc2ccc(cc2)CSCCNC(=O)[C@H](CNC(=O)c2ccc(Cl)s2)NC(=O)[C@H](Cc2ccccn2)N1 [compound 21]
[1]
  SGF stability, Residual peptide Average: 96.77
  SGF stability, Residual peptide: 95.02 and 96.82 and 98.46
  remaining at 8 h: 97 ± 2%
[2]
  PAMPA permeability: % permeability: 17 ± 5%
  Papp at 50 μM: 1.2 ×10⁻⁶ cm/s
  Permeability% Average: 17.0%
  Permeability% R1: 13.02%
  Permeability% R3: 21.96%
[3]; [8]
  Rat alpha thrombin inhibition, slope normalized to DMSO: 2.7 and 0.9 and 1.3
[3]; peptide 1.67E+01 uM
  Rat alpha thrombin inhibition, slope normalized to DMSO: 3.2 and 2.7 and 2.4
[3]; peptide 2.08E+00 uM
  Rat alpha thrombin inhibition, slope normalized to DMSO: 15.0 and 14.2 (2×)
[3]; peptide 3.33E+01 uM
  Rat alpha thrombin inhibition, slope normalized to DMSO: 3.0 and 2.9 and 1.6
[3]; peptide 4.17E+00 uM
  Rat alpha thrombin inhibition, slope normalized to DMSO: 8.4 and 7.9 and 15.6
[3]; peptide 6.67E+01 uM
  Rat alpha thrombin inhibition, slope normalized to DMSO: 2.7 and 2.1 and 0.8
[3]; peptide 8.33E+00 uM
  Rat alpha thrombin inhibition, slope normalized to DMSO: 4.8 and 3.7 and 3.3
[4]
  remaining at 8 h: 73 ± 14%
[5]
  SIF stability, Residual peptide Average: 72.44
[5]; single replicates R1-R3
  SIF stability, Residual peptide: 71.05 and 59.57 and 86.70
[6]; peptide 1.02E-03 uM
  Human alpha thrombin inhibition, slope normalized to DMSO: 103.5 and 98.1 and 102.6
[6]; peptide 1.04E+00 uM
  Human alpha thrombin inhibition, slope normalized to DMSO: 51.0 and 46.3 and 53.8
[6]; peptide 1.27E-04 uM
  Human alpha thrombin inhibition, slope normalized to DMSO: 101.6 (2×) and 101.3
[6]; peptide 1.30E-01 uM
  Human alpha thrombin inhibition, slope normalized to DMSO: 84.8 and 85.3 and 87.8
[6]; [8]
  Human alpha thrombin inhibition, slope normalized to DMSO: 2.9 and 4.3 and 7.1
[6]; peptide 1.63E-02 uM
  Human alpha thrombin inhibition, slope normalized to DMSO: 94.6 and 91.7 and 97.3
[6]; peptide 1.67E+01 uM
  Human alpha thrombin inhibition, slope normalized to DMSO: 6.9 and 8.0 and 8.2
[6]; peptide 2.03E-03 uM
  Human alpha thrombin inhibition, slope normalized to DMSO: 83.6 and 95.2 and 99.1
[6]; peptide 2.08E+00 uM
  Human alpha thrombin inhibition, slope normalized to DMSO: 39.4 and 34.7 and 41.2
[6]; peptide 2.54E-04 uM
  Human alpha thrombin inhibition, slope normalized to DMSO: 100.6 and 99.2 and 101.0
[6]; peptide 2.60E-01 uM
  Human alpha thrombin inhibition, slope normalized to DMSO: 69.7 and 83.0 and 22.1
[6]; peptide 3.18E-05 uM
  Human alpha thrombin inhibition, slope normalized to DMSO: 102.2 and 99.2 and 102.0
[6]; peptide 3.26E-02 uM
  Human alpha thrombin inhibition, slope normalized to DMSO: 94.2 and 94.0 and 90.4
[6]; peptide 3.33E+01 uM
  Human alpha thrombin inhibition, slope normalized to DMSO: 5.8 (2×) and 6.2
[6]; peptide 4.07E-03 uM
  Human alpha thrombin inhibition, slope normalized to DMSO: 90.8 and 94.4 and 95.3
[6]; peptide 4.17E+00 uM
  Human alpha thrombin inhibition, slope normalized to DMSO: 22.8 and 22.7 and 20.6
[6]; peptide 5.09E-04 uM
  Human alpha thrombin inhibition, slope normalized to DMSO: 101.7 and 100.4 and 99.5
[6]; peptide 5.21E-01 uM
  Human alpha thrombin inhibition, slope normalized to DMSO: 67.4 and 67.9 and 63.6
[6]; peptide 6.36E-05 uM
  Human alpha thrombin inhibition, slope normalized to DMSO: 101.4 and 100.0 and 102.5
[6]; peptide 6.51E-02 uM
  Human alpha thrombin inhibition, slope normalized to DMSO: 98.0 and 95.1 and 90.8
[6]; peptide 6.67E+01 uM
  Human alpha thrombin inhibition, slope normalized to DMSO: 5.7 and 4.5 and 9.4
[6]; peptide 8.14E-03 uM
  Human alpha thrombin inhibition, slope normalized to DMSO: 81.7 and 101.4 and 94.1
[6]; peptide 8.33E+00 uM
  Human alpha thrombin inhibition, slope normalized to DMSO: 13.3 and 14.1 and 15.9
[7]; [9]
  microsomal CLint: 102 µL/min/mg
[7]; [10]
  microsomal CLint: 60.2 µL/min/mg
[7]; [11]
  microsomal CLint: 85 µL/min/mg
[7]; [12]
  half-life: 13.6 min
[7]; [13]
  half-life: 23 min
[7]; [14]
  half-life: 16.3 min
[7]; Metabolic stability: Half life T1/2 (min), RLMs, mean and SD, three measurements
  half-life: 17.6 ± 4 min
[7]; [15]
  microsomal CLint: 82 ± 17 µL/min/mg

## NC(=O)NCCC[C@@H]1NC(=O)[C@@H](NC(=O)c2ccc(Cl)s2)CNC(=O)CCSCc2cccc(n2)CSCCNC1=O [compound 20]
[1]
  SGF stability, Residual peptide Average: 96.69
  SGF stability, Residual peptide: 100.68 and 91.38 and 98.01
  remaining at 8 h: 97 ± 5%
[2]
  PAMPA permeability: % permeability: 0.99 ± 0.28%
  Papp at 50 μM: 0.0646 ×10⁻⁶ cm/s
  Permeability% Average: 1.0%
  Permeability% R1: 1.25%
  Permeability% R3: 1.03%
[3]; [8]
  Rat alpha thrombin inhibition, slope normalized to DMSO: 12.2 and 19.4 and 24.3
[3]; peptide 1.67E+01 uM
  Rat alpha thrombin inhibition, slope normalized to DMSO: 41.8 and 45.6 and 42.9
[3]; peptide 2.08E+00 uM
  Rat alpha thrombin inhibition, slope normalized to DMSO: 71.5 and 79.0 and 60.4
[3]; peptide 3.33E+01 uM
  Rat alpha thrombin inhibition, slope normalized to DMSO: 25.4 and 28.0 and 27.8
[3]; peptide 4.17E+00 uM
  Rat alpha thrombin inhibition, slope normalized to DMSO: 66.5 and 70.9 and 68.3
[3]; peptide 6.67E+01 uM
  Rat alpha thrombin inhibition, slope normalized to DMSO: 16.3 and 21.9 and 8.4
[3]; peptide 8.33E+00 uM
  Rat alpha thrombin inhibition, slope normalized to DMSO: 56.5 and 61.2 and 59.0
[4]
  remaining at 8 h: 93 ± 13%
[5]
  SIF stability, Residual peptide Average: 92.33
[6]; peptide 1.02E-03 uM
  Human alpha thrombin inhibition, slope normalized to DMSO: 98.9 and 95.1 and 89.8
[6]; peptide 1.04E+00 uM
  Human alpha thrombin inhibition, slope normalized to DMSO: 90.6 and 90.5 and 80.1
[6]; peptide 1.27E-04 uM
  Human alpha thrombin inhibition, slope normalized to DMSO: 100.0 and 98.9 and 93.2
[6]; peptide 1.30E-01 uM
  Human alpha thrombin inhibition, slope normalized to DMSO: 69.5 and 98.5 and 88.7
[6]; [8]
  Human alpha thrombin inhibition, slope normalized to DMSO: 42.6 and 48.7 and 48.9
[6]; peptide 1.63E-02 uM
  Human alpha thrombin inhibition, slope normalized to DMSO: 88.4 and 95.2 and 91.8
[6]; peptide 1.67E+01 uM
  Human alpha thrombin inhibition, slope normalized to DMSO: 73.5 and 78.5 and 58.5
[6]; peptide 2.03E-03 uM
  Human alpha thrombin inhibition, slope normalized to DMSO: 99.2 and 96.7 and 91.4
[6]; peptide 2.08E+00 uM
  Human alpha thrombin inhibition, slope normalized to DMSO: 75.3 and 92.4 and 77.6
[6]; peptide 2.54E-04 uM
  Human alpha thrombin inhibition, slope normalized to DMSO: 99.2 and 99.7 and 92.0
[6]; peptide 2.60E-01 uM
  Human alpha thrombin inhibition, slope normalized to DMSO: 120.3 and 99.5 and 85.9
[6]; peptide 3.18E-05 uM
  Human alpha thrombin inhibition, slope normalized to DMSO: 87.6 and 101.9 and 93.6
[6]; peptide 3.26E-02 uM
  Human alpha thrombin inhibition, slope normalized to DMSO: 82.7 and 95.9 and 92.3
[6]; peptide 3.33E+01 uM
  Human alpha thrombin inhibition, slope normalized to DMSO: 52.1 and 61.8 and 43.1
[6]; peptide 4.07E-03 uM
  Human alpha thrombin inhibition, slope normalized to DMSO: 96.4 and 99.1 and 90.2
[6]; peptide 4.17E+00 uM
  Human alpha thrombin inhibition, slope normalized to DMSO: 69.9 and 89.4 and 83.9
[6]; peptide 5.09E-04 uM
  Human alpha thrombin inhibition, slope normalized to DMSO: 96.6 and 98.5 and 95.0
[6]; peptide 5.21E-01 uM
  Human alpha thrombin inhibition, slope normalized to DMSO: 80.4 and 93.9 and 89.5
[6]; peptide 6.36E-05 uM
  Human alpha thrombin inhibition, slope normalized to DMSO: 91.9 and 97.1 and 90.0
[6]; peptide 6.51E-02 uM
  Human alpha thrombin inhibition, slope normalized to DMSO: 80.1 and 98.2 and 90.6
[6]; peptide 6.67E+01 uM
  Human alpha thrombin inhibition, slope normalized to DMSO: 54.5 and 43.3 and 24.5
[6]; peptide 8.14E-03 uM
  Human alpha thrombin inhibition, slope normalized to DMSO: 89.1 and 102.0 and 83.1
[6]; peptide 8.33E+00 uM
  Human alpha thrombin inhibition, slope normalized to DMSO: 94.4 and 79.6 and 74.6
[7]; [9]
  microsomal CLint: 29.5 µL/min/mg
[7]; [10]
  microsomal CLint: 24 µL/min/mg
[7]; [11]
  microsomal CLint: 26.2 µL/min/mg
[7]; [12]
  half-life: 46.9 min
[7]; [13]
  half-life: 57.7 min
[7]; [14]
  half-life: 53 min
[7]; [15]
  microsomal CLint: 27 ± 2 µL/min/mg
